Assay results taken from patent US8871900B2, “Fibroblast growth factor (FGF) analogs and uses thereof” (University of Rochester, priority 2008, dated 2014).
Peptide text beside a SMILES is read from it.

Experiments:
[1] = tested on: mice exposed to sub-TBI (GI syndrome); assay: Survival after sub-TBI (GI syndrome / AGS model); type: in vivo, mouse (Balb/c, C57BL/6, C3H/HeN)
Description: A sub-TBI (total body irradiation) model was created, in which one leg of mouse is shielded from the direct radiation field. With this system, 8.5 Gy can be delivered to Balb/c mice without BM deaths (defined as deaths that occur between 10 and 30 days). When sub-TBI dose was increased to 9 Gy, half the irradiated mice die, and at 10.5 Gy, 66-100% mice died within 5-7 days. Pathologically these mice have devastating gut damage. In our GI (sub-TBI) model, the LD50/7 for Balb/c mice (6-8 week old from NCI) was 8.9-9.1 Gy. Using this GI model, the mitigation effect of FGF-P on the GI syndrome was tested. FGF-P (2 mg/kg) was given im 5-10 minutes after IR and continued once a day for 3-5 consecutive days. Each animal experiment had its own vehicle mock treatment group as control.
When the sub-TBI dose is raised to 10.5 or 11 Gy, 100% of the untreated control mice died of GI syndrome, while 33-67% of mice treated with FGF-P survived 3.5 months, FIGS. 2B and 2C). When the IR dose was raised to 12 Gy, all control animals died and 17% of FGF-P treated mice survived (FIG. 2D). […] Additionally, many of the animals that do die, do so later than mice not treated with FGF-P.
Native FGF-2 has a mouse strain dependent response profile. Most strains enjoy a benefit, but responses in C57 mice have been unimpressive. To determine if the agent works in mice with different genomic backgrounds, FGF-P (2 mg/kg) was given to C57BL/6 mice 10 min after the mice were exposed to 16 Gy sub-TBI. […] A third strain of mouse, C3H/HeN (LD50/7 about 12 Gy), was also studied. At 12.5 Gy sub-TBI, 33% of control mice survived while 50% of mice treated with FGF-P survived. At 13.5 Gy, all the control mice died within 7 days, while 50% of FGF-P treated mice survived (FIG. 3B). Thus unlike native FGF the bioavailability or bioeffect of FGF-P seems to be strain independent.

[2] = Plasma GI endocrine and exocrine markers after sub-TBI; type: in vivo, mouse (Balb/c); settings: 10.5 Gy sub-TBI, 3.5 days
Description: The gastrointestinal tract facilitates nutritional absorption and digestion through endocrine organs and exocrine function. Measurements of these functions in Balb/c mice with AGS, with and without FGF-P treatment have been made. Regarding endocrine function, critical proteins produced by epithelial cells lining the small intestine and/or the pancreas are: 1) secretin, which stimulates secretion of a bicarbonate-rich fluid from the pancreas and liver; and 2) insulin, produced by pancreatic β cells, which controls the level of blood glucose. Regarding exocrine function, a major digestive protein, amylase was measured. Amylase is secreted by epithelial cells along the GI tract, including the pancreas.
For secretin, the amino acid sequence in mice is ([…], SEQ ID NO: 4), which has a one amino acid change (M vs. T) at position 5. The kit for human secretin (Peninsula Laboratories, cat #S-1229) has been tested and it recognizes the mouse form. A mouse insulin kit is available (Linco Inc. Cat #EZRMI-13 K). The EnzChek Ultr Amylase Assay kit (Molecular Probes, Cat #E33651.3) can be used for all species, since it measures for the enzymatic product. Blood glucose level can be measured with a commercial kit from Sigma (Cat #GAG0-20 and GAHK-20) and is based on enzymatic activity, which is also universal to all species. Using these kits, the alterations in the plasma concentrations of the GI-derived proteins and peptides in mice that had been exposed to 10.5 Gy sub-TBI and, thereafter, received vehicle alone or FGF-P ([…] im) for 3 doses (10 min, 1 day, and 2 days post-IR) were measured. The samples were collected 3.5 days after irradiation.

[3] = Blood cell counts after 4 or 5 Gy TBI; type: in vivo, mouse
Description: In parallel, the leucocytes and red cells were increased as compared to vehicle-treated mice that received the same IR dose (FIGS. 17C and D).

BM cells = assay: BM colony formation in MethoCult 3 D culture; type: cell-based, mouse (Balb/c)
Description: Survival of ARS depends on rapid reconstitution of hematopoiesis after IR-induced myelosuppression. […] However, the timing and mechanism of effect on BM stem cells is unknown. Also unclear are the number of FGFRs on hematopoietic stem cells (HSCs) and their role in reconstitution after IR. […] To characterize the effects of FGF-P on BM, the study approach was to obtain fresh BM (including both HSCs and MSCs) from Balb/c mice, and culture it under varying conditions (3 D culture or 2 D round-bottom well) in triplicate for 1-3 weeks. The BM cells were stimulated with FGF-P at different doses (as test) or with EPO, TPO, GM-CSF or native FGF2 (as a positive control). The cultures were examined using several methods including colony count, photography, CyQUANT® assay and ^3H-TdR incorporation.

BM progenitors = BM progenitors (CD24, CD34) by flow cytometry after in vivo FGF-P; design: species or system mouse; settings: in vivo administration following radiation
Description: To determine if the stem cells are better regenerated, freshly harvested BM cells were stained with CD24, CD34 (two critical markers for BM multi-potential progenitors) and TER119 (a marker for reticulcoytes), and then analyzed with flow cytometry. […] This is consistent with the above in vitro data. After IR, there appears a very active generation of BM progenitors, a rebound phenomenon, similar to the intestine crypts that actively regenerate following IR to compensate for lost villi.

[4] = FGF-P (2 mg/ml im) 3 doses, P<0.05
[5] = vs vehicle-treated mice, same IR dose

CC(C)C[C@H](NC(=O)[C@H](C)NC(=O)[C@@H](NC(=O)[C@H](Cc1ccc(O)cc1)NC(=O)[C@H](Cc1c[nH]c2ccccc12)NC(=O)[C@H](CO)NC(=O)[C@H](CO)NC(=O)[C@H](Cc1ccc(O)cc1)NC(=O)[C@H](CCCCN)NC(=O)[C@H](CCCNC(=N)N)NC(=O)[C@H](CO)NC(=O)[C@H](CCCNC(=N)N)NC(=O)[C@H](Cc1ccc(O)cc1)NC(=O)[C@@H](N)CS)C(C)C)C(=O)N[C@@H](CCCCN)C(=O)N[C@@H](CCCNC(=N)N)C(=O)N[C@@H](CS)C(=O)O [FGF-P, CYRSRKYSSWYVALKRC] (H-CYRSRKYSSWYVALKRC-OH; N-terminus and C-terminus assumed)
mice still alive ([1]; Balb/c, 10 Gy sub-TBI, at 4 months, FGF-P 2 mg/kg im 5-10 min after IR, daily 3-5 days): 87%
mice survived ([1]; Balb/c, 10.5 or 11 Gy sub-TBI, 3.5 months, FGF-P 2 mg/kg im): 33-67%
mice survived ([1]; Balb/c, 12 Gy sub-TBI, FGF-P 2 mg/kg im): 17%
mice survived ([1]; C3H/HeN, 12.5 Gy sub-TBI): 50%
mice survived ([1]; C3H/HeN, 13.5 Gy sub-TBI): 50%
mice still alive ([1]; C57BL/6, 16 Gy sub-TBI, at 1.5 months, FGF-P 2 mg/kg 10 min after IR): 33%
long-term survival ([1]; C57BL/6, 16 Gy sub-TBI, over 2.5 months): 33%
plasma amylase level [2, 4]: restored it to normal levels
plasma insulin levels [2, 4]: restored to near normal
plasma level of secretin [2, 4]: reversed this effect
blood glucose ([2]; FGF-P (im) 3 doses): better preserved
platelet counts ([3]; 4 or 5 Gy TBI): accelerated recovery of platelet counts
leucocytes [3, 5]: increased
red cells [3, 5]: increased
colony formation of BM cells (BM cells): enhanced colony formation of BM cells in a dose dependent manner
number of BM progenitors (CD24, CD34) (BM progenitors): increased the number of BM progenitors following radiation
